These results are taken from patent US9360471B2, “Anti-aging agents and methods to identify them” (priority 2009, dated 2016).

“And” between values parts separate entries of the source, which are not always exact repeats. Equal values may be shown once.

Assay [1] concerns senescent WI-38 cells (human primary fibroblast). Kind of assay: loss of senescent WI-38 cells, β-galactosidase (X-gal) staining. The settings on record: 56 days in senescence; 50 pM rapamycin, 250 μM AICAR, 20 μg/mL EGCG, 1.6 μg/mL GSE, 20 μg/mL bilberry extract, 1 μM AITC, 12.5 μM 2-deoxyglucose; 3-day-on/7-day-off (AICAR 2-day-on/8-day-off). The format is cell-based. The protocol:
AICAR and reduced glucose treatment were incubated with cells in a 2-day-on/8-day-off cycle, while the rest of agents were in a 3-day-on/7-day-off cycle. The treatment started at passage 29. The medium was refreshed every 3 days. After 56-days from passage 31 (senescence), the cells were briefly fixed in 2% formaldehyde/0.2% glutaraldehyde and stained with 1 mg/mL 5-bromo-4-chloro-3-indolyl β-D-galactoside (X-gal) (in buffer containing 40 mM citric acid/sodium phosphate, pH 6.0, 5 mM potassium ferrocyanide, 5 mM potassium ferricyanide, 150 mM NaCl, and 2 mM MgCl2) at 37° C. for 18 hrs for the senescence marker, cellular β-galactosidase activity (blue in color picture and dark grey in black/white picture). Surviving senescent cells were viewed under a microscope.
This invention discloses that CR or rapamycin also prolongs senescence and prevents cell death induced by telomere dysfunction in human cells. Primary human embryonic lung fibroblasts WI-38 were used. […] Cells at passage 29 were treated with 50 pM rapamycin. The treatment was on a 10-day cycle of 3-day with and 7-day without rapamycin (also termed as 3-day-on/7-day-off cycle). […] Due to increased cytosol β-galactosidase activity, senescent cells are stained a blue color (shown as dark grey in black/white picture). […] Rapamycin didn't transform cells since the senescence marker was still present and cell growth was not observed.

The test system of a further assay is human lymphoblastoid L40. Nature of the assay: mitochondrial mass in human lymphoblastoid L40, MitoTracker Green FM and FACS. Type of assay: cell-based. The settings on record: for mitochondrial mass: 2-day treatment, 10 μM LY294002, 2 μM DATS, 1 μM BITC, 1 μM PITC, 2 μg/mL resveratrol, 0.03 μM lycopene, 6.7 μM PEITC, 5 mM silibinin, 1.25 mM selenite, 2.5 mM genistein, 250 μg/mL GSE, 50 μg/mL EGCG, 3 mg/mL bilberry extract, 1 μM AITC, 50 pM rapamycin, 250 μM AICAR. An excerpt:
Mitochondrial mass was monitored by staining the 60% Ethanol-fixed cells with MitoTracker Green FM prior to FACS analysis.

The test system of a further assay is marine models. Particulars: marine models (Calvert 2008); cited from earlier work.
The subject of assay [2] is cdc13-1 cells. Nature of the assay: cdc13-1 cell survival after cdc13-1p inactivation, colony formation assay. Type of assay: cell-based, budding yeast. Particulars: for cell death triggered by inactivation of cdc13-1p (colony formation assay): 37° C. about 30 hrs, 6.7 μM PEITC, 5 mM silibinin, 1.25 mM selenite, 2.5 mM genistein, 250 μg/mL GSE, 50 μg/mL EGCG, 3 mg/mL bilberry extract. The protocol:
To induce telomere dysfunction, fresh overnight cultures of cdc13-1 were diluted into YEPD medium with the indicated concentrations of glucose or 2-deoxyglucose and incubated at 37° C. for 24 hrs. For colony formation assay, treated cells were then serially diluted 10-fold in H2O and 5 μL was spotted onto regular YEPD plates. The plates were incubated at 24° C. for survived cells to form colonies. The starting number of live-cells was also counted by this colony formation assay. (B) Nitrogen restriction inhibits cell death induced by cdc13-1p inactivation as monitored by a colony formation assay. Cells were incubated in synthetic medium (SC) or SC—N (SC without amino acids and (NH4)2SO4 as nitrogen sources) at 37° C. for 24 hrs. The number of survived cells was counted using colony formation assay as described in 1A. (C-D) Inhibition of TOR by low doses of rapamycin (labeled as Rapa) (below growth inhibition concentration) can prevent cell death induced by cdc13-1p inactivation. Cells were incubated with the indicated concentrations of rapamycin in YEPD medium at 37° C. for 24 hrs. The number of survived cells was measured by the colony formation assay as in 1A. For growth curve, fresh overnight culture was diluted into YEPD medium and incubated at 24° C. in the presence of the indicated concentrations of rapamycin. Cell Density (OD595) was measured at the indicated time points and plotted against the time. (E) Deterioration of growth arrested cdc13-1 cells can be delayed by low dose of rapamycin (1 nM) and glucose restriction (0.5%) as measured by counting surviving cells using the colony formation assay. The data represent an average of three experiments.
(§1) (A) Cells were incubated at 37° C. to inactivated cdc13-1p, in YEPD medium, YEPD+1 nM rapamycin or YEPD with 0.5% glucose. At the indicated time points, an aliquot of cells was taken out and fixed with 50% ethanol at −20° C. for about 4 hrs, and then digested with 0.2 mg/mL RNase A in 50 mM Tris pH 7.6 at 37° C. overnight. The cells were next washed with 50 mM Tris pH 7.6 and treated with 40 μg/mL proteinase K at 55° C. for 2 hrs. After being washed again, cells were stained with 100 μg/mL propidium iodide for 20 min in the dark prior to FACS (Fluorescence activated cell sorter) analysis. […] Cells were incubated at 37° C. for 2 hours first, then diluted with a 37° C.-YEPD medium, YEPD with rapamycin to make a final concentration of 1 nM, or with a 37° C.-medium without glucose to make final 0.5% glucose. The cells were continuously incubated at 37° C. for 22 hrs. Surviving cells were counted using the colony formation assay.
The 6.7 μM PEITC, 5 mM silibinin, 1.25 mM selenite, 2.5 mM genistein, 250 μg/mL grape seed extract (GSE), 50 μg/mL EGCG, and 3 mg/mL bilberry extract (BE) were incubated with cells at 37° C. for about 30 hrs. The cell survival was measured by the colony formation assay at a permissive temperature 24° C.
In addition, limitation of nitrogen by SC—N medium (containing 0.67% yeast nitrogen base in absence of amino acids and (NH4)2SO4, 2% glucose, plus a mixture of 100 mg/L each of histidine, leucine, tryptophan and uracil for this yeast strain) prevented the cell death (FIG. 1B). […] After 60 hrs of incubation at 37° C., cell survival was at least 100-fold more than those without treatment.

Assay [3] has as its system cdc13-1 cells. Kind of assay: DNA content / cell cycle FACS analysis after cdc13-1p inactivation. The format is cell-based, budding yeast. The settings on record: rapamycin 1 nM in YEPD, 37° C. for 2 hrs. The protocol:
as §1

For another assay, the system named is WI-38 cells. Nature of the assay: growth and population doubling of WI-38 cells. Particulars: 25 pM rapamycin; without rapamycin 5.18 or 5.12. The format is cell-based, human. The protocol: (A) WI-38 cells were treated with the indicated concentrations of rapamycin as in FIG. 7. The treatment started at passage 29. Cells entered senescence at passage 31. After 65-days in senescence, surviving cells were measured by MTT (3-(4,5-dimethylthiazol-2-yl)-2,5-diphenyltetrazolium bromide, a tetrazole) staining. The purple color of MTT generated by mitochondrial reductase was read in 570 nm by a microplate reader. The data is a representative of three independent duplica-experiments. (B) The effect of rapamycin on growth of WI-38 cells. Cells were cultured as in FIG. 7. Arrows indicate the time point when rapamycin was added. 25 pM rapamycin has little effect on growth rate, but increases the population doubling (PD) from 5.18 to 6.82. Population doublings were calculated using the following formula: PD=log(Nf/N0)/log 2, where Nf is the final cell number and N0 is the number of initially seeded cells. Data is a representative of two independent duplica-experiments. (C) The low doses of rapamycin increase protein levels of p53, p21 and pRB. WI-38 cells on the 20th day after the last split (senescence) were treated with rapamycin for 18 hrs. Cell lysates were then analyzed by Western blotting using antibodies specifically against p53, p21 or pRB.

The next assay has as its system NIH3T3 cells. Nature of the assay: mitochondrial mass in NIH3T3 cells treated with TPA. Particulars: 10 μM TPA, two days. Type of assay: cell-based, mouse. The protocol:
NIH3T3 cells were incubated in DMEM medium (DMEM with 10% FCS, 100 units/mL penicillin, 100 μg/mL streptomycin and 2 mM glutamine) in the presence of control DMSO, 10 μM TPA, 1 nM rapamycin, 10 μM TPA+1 nM rapamycin, 40 μM AICAR, or 10 μM TPA+40 μM AICAR at 37° C. in a humidified atmosphere consisting of 95% air and 5% CO2 for two days. Cells were then harvested by trypsin and fixed by 60% ethanol. The cells were stained with MitoTracker Greeen FM in darkness for 30 min prior to FACS analysis. The data represents the average of a triplica-experiment.

`C=CCN=C=S` [AITC, allyl isothiocyanate]: the “loss of the senescent WI-38 cells” value in assay [1] is reported as “prevented”. In the assay with human lymphoblastoid L40, the mitochondrial mass entry is recorded as “increased”.
With `S=C=Nc1ccccc1` [phenyl isothiocyanate], the mitochondrial mass entry with human lymphoblastoid L40 is given as “increased”.
For `CN(C)C(=N)N=C(N)N` [metformin], the myocardial infarction entry in the assay with marine models is given as “can reduce myocardial infarction”.
As to `O=c1c(-c2ccc(O)cc2)coc2cc(O)cc(O)c12` [genistein], the “cell death triggered by inactivation of cdc13-1p (colony formation assay)” value (“cell death triggered by inactivation” below) in the assay on cdc13-1 cells [2] was “inhibited cell death”. Further, the mitochondrial mass result with human lymphoblastoid L40 is recorded as “increased”.
Take `CO[C@H]1C[C@@H]2CC[C@@H](C)[C@@](O)(O2)C(=O)C(=O)N2CCCC[C@H]2C(=O)O[C@H]([C@H](C)C[C@@H]2CC[C@@H](O)[C@H](OC)C2)CC(=O)[C@H](C)/C=C(\C)[C@@H](O)[C@@H](OC)C(=O)[C@H](C)C[C@H](C)/C=C/C=C/C=C/1C` [rapamycin]: the “cell survival compared with those without treatment” value in the assay with cdc13-1 cells [2] (low dose of rapamycin (1 nM), after 60 hrs of incubation at 37° C.) was “at least 100 fold”. The “cells entered the G2/M phase of cell cycle” value in the assay on cdc13-1 cells [3] was “more than 95%”. Also, the “population doubling (PD), replication potential” value in the assay on WI-38 cells was 6.8 and 6.82.
Regarding `C=CCSSSCC=C` [diallyl trisulfide], the mitochondrial mass entry in the assay on human lymphoblastoid L40 is listed as “increased”.
On the same count and under the same terms, with `CC(C)=CCC/C(C)=C/C=C/C(C)=C/C=C/C(C)=C/C=C/C=C(C)/C=C/C=C(C)/C=C/C=C(\C)CCC=C(C)C` [lycopene] the entry was “increased”.
Consider `O=C(O[C@@H]1Cc2c(O)cc(O)cc2O[C@@H]1c1cc(O)c(O)c(O)c1)c1cc(O)c(O)c(O)c1` [EGCG, Epigallocatechin gallate], for which the “cell death triggered by inactivation” value in the assay on cdc13-1 cells [2] is given as “inhibited cell death”. In addition, in assay [1], the “loss of the senescent WI-38 cells” value was “prevented”. The mitochondrial mass entry with human lymphoblastoid L40 is “increased”.
In the case of `CCCCCCCCCCCCCC(=O)O[C@@H]1[C@@H](C)[C@@]2(O)[C@@H](C=C(CO)C[C@]3(O)C(=O)C(C)=C[C@@H]23)[C@@H]2C(C)(C)[C@]12OC(C)=O` [TPA, 12-O-tetradecanoylphorbol 13-acetate], in the assay on NIH3T3 cells, the “mitochondrial mass in NIH 3T3 cells” value is given as “dramatically decreased the mitochondrial mass”.
In the case of `O=[Se]([O-])[O-].[Na+].[Na+]` [selenite, selenite (Na2SeO3)], in the assay with cdc13-1 cells [2], the “cell death triggered by inactivation” value was “inhibited cell death”. In the assay on human lymphoblastoid L40, the mitochondrial mass entry is recorded as “increased”.
`S=C=NCc1ccccc1` [benzyl isothiocyanate]: in the assay on human lymphoblastoid L40, the mitochondrial mass result is on record as “increased”.
Turning to `S=C=NCCc1ccccc1` [PEITC, phenethyl isothiocyanate], the “cell death triggered by inactivation” value in the assay with cdc13-1 cells [2] was “inhibited cell death”. The mitochondrial mass result in the assay with human lymphoblastoid L40 is given as “increased”.
Regarding `Oc1ccc(C=Cc2cc(O)cc(O)c2)cc1` [resveratrol], the mitochondrial mass entry in the assay with human lymphoblastoid L40 is “increased”.
Consider `O=CC[C@@H](O)[C@H](O)[C@H](O)CO` [2-deoxyglucose, reference compound], for which the “cell death induced by inactivation of cdc13-1p (colony formation assay)” value with cdc13-1 cells [2] (200 μM added to YEPD with 2% glucose, 37° C. 22 hrs) was “prevented cell death effectively”. Moreover, the “loss of the senescent WI-38 cells” value in assay [1] is “prevented”. Also, in the assay on human lymphoblastoid L40 (12.5 μM 2-deoxyglucose), the mitochondria mass entry is “increased mitochondria mass”.
